Values quoted from earlier work as cited in patent publication US20030176421A1, “PROKINETIC AGENTS FOR TREATING GASTRIC HYPOMOTILITY AND RELATED DISORDERS” (priority 1999, published 2003).
No end group written: not given here.

Assays:
[1] = tested on: guinea pig ileum longitudinal muscle; settings: potentiation at lower doses, inhibition at higher concentrations for theophylline; entire concentration range for the others
[2] = tested on: cat lower oesophageal sphincter; settings: for relaxation of circular smooth muscle (LOS): cat; for cAMP and cGMP levels after exposure: cat LOS
[3] = tested on: human lower oesophageal sphincter
[4] = tested on: guinea-pig gastric muscle; settings: without altering membrane potential significantly
[5] = tested on: canine colonic smooth muscle; settings: in the presence of forskolin; concentration dependent
[6] = tested on: sensitized guinea-pig colon
[7] = tested on: isolated canine internal anal sphincter

## OCCN(CCO)c1nc(N2CCCCC2)c2nc(N(CCO)CCO)nc(N3CCCCC3)c2n1 [dipyridamole]
[1]
  effect on contractile response to transmural cholinergic nerve stimulation: depression of the contractile responses

## pituitary adenylate cyclase activating peptide [PACAP]
[2]
  relaxation of circular smooth muscle (LOS): induced concentration-dependent relaxations
  cAMP and cGMP levels after exposure: both cAMP and cGMP levels were increased
[3]
  relaxation of circular smooth muscle (LOS): induced concentration-dependent relaxations

## CC(C)Cn1c(=O)n(C)c(=O)c2[nH]cnc21 [IBMX, 3-isobutyl-1-methylxanthine]
[4]
  effect on slow waves: markedly reduce the frequency of slow waves
Pig gastric fundus
  relaxation of muscle strips: induce concentration-dependent relaxations
[5]
  potency order for decrease in carbachol-induced contractile activity: rolipram>Ro 20-1724>isobutyl methylxanthine>SB 94120>siguazodan>zaprinast

## O=S(=O)(Nc1cccc(OCc2ccc3ccccc3n2)c1)C(F)(F)F [ritolukast]
[6]
  slower developing late contraction after antigen: reduced

## Cn1c(=O)c2[nH]cnc2n(C)c1=O [theophylline]
[4]
  effect on slow waves: markedly reduce the frequency of slow waves
[1]
  effect on contractile response to transmural cholinergic nerve stimulation: biphasic effect on cholinergic transmission

## COc1ccc(CN(CCN(C)C)c2ccccn2)cc1 [mepyramine]
[6]
  initial rapid response of antigen-induced contraction: blocked

## CCCCOc1cc(CC2CNC(=O)N2)ccc1OC (centres unmarked) [Ro 20-1724]
[5]
  potency order for decrease in carbachol-induced contractile activity: rolipram>Ro 20-1724>isobutyl methylxanthine>SB 94120>siguazodan>zaprinast

## [N]=O [NO, nitric oxide]
Pig gastric fundus
  increase in cGMP content: ~40 fold

## COc1ccc(C2CNC(=O)C2)cc1OC1CCCC1 (centres unmarked) [rolipram]
[4]
  effect on slow waves: markedly reduce the frequency of slow waves
[5]
  potency order for decrease in carbachol-induced contractile activity: rolipram>Ro 20-1724>isobutyl methylxanthine>SB 94120>siguazodan>zaprinast

## CN/C(=N\c1ccc(C2=NNC(=O)CC2C)cc1)NC#N (centres unmarked) [siguazodan]
[5]
  potency order for decrease in carbachol-induced contractile activity: rolipram>Ro 20-1724>isobutyl methylxanthine>SB 94120>siguazodan>zaprinast

## vasoactive intestinal peptide (HSDAVFTDNYTRLRKQMAVKKYLNSILN; ends and bridges not checked; UniProt P01282 125-152, looked up) [VIP]
[2]
  relaxation of circular smooth muscle (LOS): induced concentration-dependent relaxations
  cAMP and cGMP levels after exposure: increase in cAMP levels only
[3]
  relaxation of circular smooth muscle (LOS): induced concentration-dependent relaxations

## C=C[C@@]1(C)CC(=O)[C@]2(O)[C@@]3(C)[C@@H](O)CCC(C)(C)[C@@H]3[C@H](O)[C@H](OC(C)=O)[C@@]2(C)O1 [forskolin]
[7]
  relaxation by intrinsic inhibitory neurons and associated cGMP elevation: blocked
Pig gastric fundus
  relaxation of muscle strips: induce concentration-dependent relaxations

## COc1cc(C(=O)OCCCN2CCCN(CCCOC(=O)c3cc(OC)c(OC)c(OC)c3)CC2)cc(OC)c1OC [dilazep]
[1]
  effect on contractile response to transmural cholinergic nerve stimulation: depression of the contractile responses

## CCCOc1ccccc1-c1nc2[nH]nnc2c(=O)[nH]1 [zaprinast]
Pig gastric fundus
  relaxation of muscle strips: induce concentration-dependent relaxations
Pig gastric fundus; circular, but not longitudinal muscle strips
  effect on NANC relaxations induced by electrical stimulation at intervals: increases the duration of the NANC relaxations
[5]
  potency order for decrease in carbachol-induced contractile activity: rolipram>Ro 20-1724>isobutyl methylxanthine>SB 94120>siguazodan>zaprinast

## helospectin
[2]
  cAMP and cGMP levels after exposure: both cAMP and cGMP levels were increased
